Columns and labels:
[1] = tested on: depressive-like behavior induced by Aβ; details: through the increased levels of NA; no reference given; cited from earlier work
Aβ-treated mice [2] = assay: Splash test in Aβ-treated mice; assay type: in vivo; details: mice 7 days after icv Aβ 4 µM; sublingual AKBA 5 mg/kg 30 min before testing; Aβ vs SHAM, Aβ+AKBA vs Aβ
Aβ-treated mice [3] = assay: Tail suspension test in Aβ-treated mice; assay type: in vivo; details: mice 7 days after icv Aβ 4 µM, sublingual AKBA 5 mg/kg 30 min before, Aβ vs SHAM
noradrenaline (NA) = assay: Noradrenaline quantification in PFC and HIPP by HPLC with electrochemical detection; assay type: in vivo; details: HIPP, mice 7 days after icv Aβ 4 µM; sublingual AKBA 5 mg/kg 30 min earlier
Method: (§1) All behavioral experiments were conducted at 5 or 30 min after sublingual administrations of AKBA or vehicle in either SHAM or Aβ-treated mice. Based upon behavioral outcomes observed, neurochemical and biochemical quantifications were performed 30 min after AKBA or vehicle administration in either SHAM or Aβ-treated mice.
(§2) Anesthetized animals were sacrificed by cervical dislocation. Brains were immediately removed and kept on ice for dissection of PFC and HIPP, according to the atlas of Paxinos and Franklin. Tissues were frozen and stored at −80 °C until analyses were carried out. Samples (PFC and HIPP) were homogenized (1:10 w/v) at 4 °C using a PBS buffer containing a 1:100 protease and phosphatase inhibitor cocktail (HALT inhibitors, Thermo Fisher Scientific, Cleveland, OH, USA) for biochemical analyses or perchloric acid 0.1 M for neurochemical analyses. Homogenates were centrifuged at 13,000× g at 4 °C for 20 min, and supernatants were used for further determinations.
(§3) 5-HT, noradrenaline (NA), and KYN levels were measured in the PFC and HIPP of mice by HPLC coupled with an electrochemical detector (Ultimate ECD, Thermo Scientific Dionex, Milan, Italy) as already reported. Separation was performed by a LC18 reverse phase column (Kinetex, 150 mm × 3.0 mm, ODS 5 μm; Phenomenex, Castel Maggiore-Bologna, Italy). The detection was accomplished by a thin layer amperometric cell (Thermo Scientific Dionex, Milan, Italy) with a 5 mm diameter glassy carbon electrode at a working potential of 400 mV (5-HT and NA) or 0.750 mV (KYN) vs. Pd. The mobile phase consisted of an aqueous buffer containing 75 mM NaH2PO4, 1.7 mM octane sulfonic acid, 0.3 mM EDTA, and acetonitrile 10%, buffered at pH 3.0. […] GLU concentrations were determined by HPLC coupled with fluorescence detection (emission length 460 nm; excitation length 340 nm), as previously published. […] Results were analyzed by Borwin software (version 1.50; Jasco, Cremella, Italy) and the amino acid concentration was expressed as µM. All data were normalized for total area weight and were expressed as concentration/mg of tissue.

glutamate (GLU) = assay: Glutamate quantification in PFC and HIPP by HPLC with fluorescence detection; assay type: in vivo; details: mice 7 days after icv Aβ 4 µM, sublingual AKBA 5 mg/kg 30 min earlier
Method: as §1, §2, §3

kynurenine (KYN) = assay: Kynurenine quantification in PFC and HIPP by HPLC with electrochemical detection; assay type: in vivo; details: mice 7 days after icv Aβ 4 µM, sublingual AKBA 5 mg/kg 30 min earlier
Method: as §1, §2
(§4) 5-HT, noradrenaline (NA), and KYN levels were measured in the PFC and HIPP of mice by HPLC coupled with an electrochemical detector (Ultimate ECD, Thermo Scientific Dionex, Milan, Italy) as already reported. Separation was performed by a LC18 reverse phase column (Kinetex, 150 mm × 3.0 mm, ODS 5 μm; Phenomenex, Castel Maggiore-Bologna, Italy). The detection was accomplished by a thin layer amperometric cell (Thermo Scientific Dionex, Milan, Italy) with a 5 mm diameter glassy carbon electrode at a working potential of 400 mV (5-HT and NA) or 0.750 mV (KYN) vs. Pd. The mobile phase consisted of an aqueous buffer containing 75 mM NaH2PO4, 1.7 mM octane sulfonic acid, 0.3 mM EDTA, and acetonitrile 10%, buffered at pH 3.0. The flow rate was kept at 0.7 mL·min-1 by an isocratic pump (Shimadzu LC-10 AD, Kyoto, Japan). Data acquisition and integration were performed by using Chromeleon software (version 6.80, Thermo Scientific Dionex, Milan, Italy). GLU concentrations were determined by HPLC coupled with fluorescence detection (emission length 460 nm; excitation length 340 nm), as previously published. Analyses were carried out using an LC18 reverse phase column (Kinetex, 150 mm × 3.0 mm, ODS 5 μm; Phenomenex, Castel Maggiore, Bologna, Italy) and detection was accomplished by pre-column derivatization with ophthalaldehyde/mercaptopropionic acid. The mobile phase consisted of a 50 mM sodium acetate buffer, at pH 6.95, with gradient methanol increasing linearly from 2 to 30% (v/v) over a 40 min run. […] Results were analyzed by Borwin software (version 1.50; Jasco, Cremella, Italy) and the amino acid concentration was expressed as µM. All data were normalized for total area weight and were expressed as concentration/mg of tissue.

5-HT = 5-HT quantification in PFC and HIPP by HPLC with electrochemical detection; assay type: in vivo; details: mice 7 days after icv Aβ 4 µM, sublingual AKBA 5 mg/kg 30 min earlier
Method: as §1, §2, §4

GFAP = assay: Western blotting quantification of GFAP in PFC and HIPP; assay type: in vivo; details: mice 7 days after icv Aβ 4 µM, sublingual AKBA 5 mg/kg 30 min earlier
Method: as §1, §2
(§5) The total amount of proteins was measured in homogenates by using Pierce BCA Assay (Thermo Fisher Scientific, Cleveland, OH, USA). Forty µg of the total lysate protein were separated by SDS-PAGE precast gels (Bio-Rad Laboratories Inc., Segrate (MI), Italy), transferred onto nitrocellulose membranes (Bio-Rad Laboratories Inc, Segrate (MI), Italy) and then blocked for 1 h in blocking buffer (SigmaAldrich, Milan, Italy). Rabbit polyclonal antibody against GFAP (Dako Products, USA; 1:2000), rabbit monoclonal antibody against CD11b (Abcam, Cambridge, MA, USA; ab133357, 1:1000) and mouse monoclonal antibody against NF-kB p65 (Santa Cruz Biotechnology, Dallas, Texas, USA; 1:2000) were used to incubate the membranes overnight at 4 °C. After HRP-conjugated specific antibody incubation, ECL reagent (Bio-Rad Laboratories Inc., Segrate (MI), Italy) was added to the immune complex and chemiluminescence was detected by ChemiDoc MP system (Bio-Rad Laboratories Inc., Segrate (MI), Italy). Optical densities of the bands were measured using ImageJ software (http://rsb.info.nih.gov/ij/ accessed on 15 March 2021) and normalized against bands relative to β-actin (1:5000, Abcam, Cambridge, UK).

CD11b = assay: Western blotting quantification of CD11b in PFC and HIPP; assay type: in vivo; details: mice 7 days after icv Aβ 4 µM, sublingual AKBA 5 mg/kg 30 min earlier
Method: as §1, §2, §5

NF-kB p65 = assay: Western blotting quantification of NF-kB p65 in PFC and HIPP; assay type: in vivo; details: mice 7 days after icv Aβ 4 µM, sublingual AKBA 5 mg/kg 30 min earlier
Method: as §1, §2, §5

Aβ-treated rats = tested on: Aβ-treated rats; design: method as in PMID 28499898; details: acute treatment; cited from earlier work

For CNCCC(Oc1ccc(C(F)(F)F)cc1)c1ccccc1 (stereo not drawn) [fluoxetine], the “Depressive-like behavior induced by Aβ” value [1] is listed as “reduced the depressive-like behavior”.
With “Aβ: soluble amyloid beta 1-42 peptide (Tocris), injected icv at 4 µM to evoke a depressive-like phenotype [reference compound]” the “Latency to leak in the splash test” value (Aβ-treated mice [2]) was “significant increase in latency to leak”, the “Time spent performing self-care in the splash test” value (Aβ-treated mice [2]) was “reduction in time spent performing self-care” and the “Immobility time in the tail suspension test” value (Aβ-treated mice [3]) was “significant increase in the immobility time”. The “NA levels in the HIPP” value (noradrenaline (NA)) was “significant increase in catecholamine levels”, the “GLU levels in the HIPP” value (glutamate (GLU); HIPP) was “significantly increased hippocampal GLU levels” and the “GLU levels in the PFC” value (glutamate (GLU); PFC) was “increased GLU levels compared to SHAM mice”. The “KYN levels in the HIPP” value (kynurenine (KYN); HIPP) was “increase in KYN levels induced by the peptide”, the “KYN levels in the PFC” value (kynurenine (KYN); PFC) was “significant increase in cortical KYN levels” and the “5-HT levels in the HIPP” value (5-HT; HIPP) was “no differences among experimental groups”. The “5-HT levels in the PFC” value (5-HT; PFC) was “significant decrease in PFC”, the “GFAP levels in the HIPP (optical density normalized to actin)” value (GFAP; HIPP) was “significant increase in hippocampal GFAP levels” and the “GFAP levels in the PFC (optical density normalized to actin)” value (GFAP; PFC) was “significant increase in GFAP levels”. For the same molecule, the “CD11b levels in the HIPP (optical density normalized to actin)” value (CD11b; HIPP) was “significant enhanced hippocampal levels”, the “CD11b content in the PFC (optical density normalized to actin)” value (CD11b; PFC) was “no differences were found among experimental groups” and the “NF-kB p65 content in the HIPP (optical density normalized to actin)” value (NF-kB p65; HIPP) was “significantly increased the levels of this transcription factor”. For the same molecule, the “NF-kB p65 levels in the PFC (optical density normalized to actin)” value (NF-kB p65; PFC) was “significantly increased cortical NF-kB levels”.
For CNC1(c2ccccc2Cl)CCCCC1=O (stereo not drawn) [ketamine], the “Pro-depressive-like effect of Aβ in rats” value (Aβ-treated rats) is listed as “able to revert”.

Reference: PMC8170916, “Sublingual AKBA Exerts Antidepressant Effects in the Aβ-Treated Mouse Model” (Biomolecules, 2021)
